In US4960765A, “Pharmaceutical composition and method for the treatment of colitis ulcerosa and Crohn's disease by oral administration” (priority 1989, dated 1990):
“Also recorded” adds a separate entry of the source. Like-named read-outs stand apart in the source and are kept apart here. One block for each compound: values may come before it.

What was measured:
[1] = Ileostomy effluent study (5-ASA / 5-AcASA excretion) in ileostomy patients; type: in vivo, human (ileostomy patients); conditions: for detection in ileostomy secretions: first two hours, 500 mg 5-ASA single oral dose; for excretion rate in ileostomy effluents: following hours up to 8 hours after ingestion
Text: DETERMINATION OF 5-[…] BIOLOGICAL FLUIDS […] ILEOSTOMY PATIENTS Six ileostomy patients colectomized because of colitis ulcerosa with intact small bowel were studied. Their distribution as to sex, age, height, body weight, time since colectomy, small bowel transit time (carmine), and acetylator phenotype (v. Fischer and Klotz, op. cit.) (assessed by sulphadimidine) are shown below in talbe I. ILEOSTOMY PATIENTS […] Ileostomy effluents were collected every hour for eight hours (FIGS. 1+2) urine was collected over an 8 hour period and venous blood was drawn at intervals through the first eight hours (FIGS. 3 and 4).

[2] = Urinary excretion in ileostomy patients; type: in vivo, human (ileostomy patients)
Procedure: DETERMINATION OF 5-[…] BIOLOGICAL FLUIDS […] Six ileostomy patients colectomized because of colitis ulcerosa with intact small bowel were studied. Their distribution as to sex, age, height, body weight, time since colectomy, small bowel transit time (carmine), and acetylator phenotype (v. Fischer and Klotz, op. cit.) (assessed by sulphadimidine) are shown below in talbe I. […] Ileostomy effluents were collected every hour for eight hours (FIGS. 1+2) urine was collected over an 8 hour period and venous blood was drawn at intervals through the first eight hours (FIGS. 3 and 4).

[3] = Plasma concentrations in healthy volunteers; type: in vivo, human (healthy volunteers)
Procedure: (§3) Each subject took two 5-ASA tablets, i.e. 500 mg 5-ASA, three times a day for six days, at 8 a.m., 4 p.m. and at midnight except for the first day, where the two first ingestions took place at 9 a.m. and 5 p.m. […] The two tablets at 8 a.m. were taken by the fasting subject. Venous blood samples for determination of 5-ASA and 5-AsASA were drawn at intevals throughout the first day (FIG. 5) and at 7.50 the following five days(i.e. before the 8 a.m. tablets were ingested) (FIG. 6). Twenty-four hour urine and faecal smaples were collected on the 6th day for quantitative determination of 5-ASA and 5-AcASA. EVery day throughout the study peroid of six days a single faecal sample was analgzed qualitatively for the presence of 5-ASA and 5-AcASA.

[4] = Urinary excretion in healthy volunteers; type: in vivo, human (healthy volunteers)
Text: It is the purpose of the clinical studies described below to estimate the bioavailability of a sustained-release type 5-ASA tablet (Pentasea®) of the composition described above in the example by the study of 5-ASA/5-AcASA plasma levels in healthy volunteers as well as the excretion pattern in urine and faces.
(§1) DETERMINATION OF 5-ASA AND 5-AcASA IN BIOLOGICAL FLUIDS
(§2) Procedures for the determination of 5ASA and 5AcASA in ileostomy effluents, feces, urine and blood were based on a newly developed HPLC assay combined with flurescens spectophotometry.
Fourteen healthy persons consented to volunteer. They had no previous or present symptoms or signs of gastrointestinal or other disease apart from uncomplicated appendectomy. There were seven females and seven males. Mean age and age range were for the women 32.4 years and 29-37 years, and for the males 32 years and 24-40 years, respectively. Mean body weight and weight range were for the females 58.6 kg and 53-67 kg, and for the males 70.9 kg and 60-83 kg, respectively. There were eight slow and 6 fast acetylators.
Each subject took two 5-ASA tablets, i.e. 500 mg 5-ASA, three times a day for six days, at 8 a.m., 4 p.m. and at midnight except for the first day, where the two first ingestions took place at 9 a.m. and 5 p.m. The injections are shown by arrows on FIG. 5 and 6. The two tablets at 8 a.m. were taken by the fasting subject. Venous blood samples for determination of 5-ASA and 5-AsASA were drawn at intevals throughout the first day (FIG. 5) and at 7.50 the following five days(i.e. before the 8 a.m. tablets were ingested) (FIG. 6). Twenty-four hour urine and faecal smaples were collected on the 6th day for quantitative determination of 5-ASA and 5-AcASA. EVery day throughout the study peroid of six days a single faecal sample was analgzed qualitatively for the presence of 5-ASA and 5-AcASA.

[5] = Faecal excretion and total recovery in healthy volunteers; type: in vivo, human (healthy volunteers); conditions: for daily qualitative faecal analysis: morning samples from day 2 throughout the study
Procedure: as §3

colitis ulcerosa = conditions: cited from earlier work; for therapeutic role on rectal administration: Azad Khan et al.
[6] = cited from earlier work; for amounts observed in the feces: oral 5-ASA, healthy volunteers
[7] = oral 5-ASA; rats; cited from earlier work
[8] = cited from earlier work
[9] = Plasma concentrations in ileostomy patients; type: in vivo, human (ileostomy patients); conditions: half an hour after ingestion of 500 mg 5-ASA
Text: as §1, §2
Six ileostomy patients colectomized because of colitis ulcerosa with intact small bowel were studied. Their distribution as to sex, age, height, body weight, time since colectomy, small bowel transit time (carmine), and acetylator phenotype (v. Fischer and Klotz, op. cit.) (assessed by sulphadimidine) are shown below in talbe I.
A single dose of two tablets of sustained-release 5-ASA i.e. total dose 500 mg, were ingested at 8 a.m. by the fasting patient who thereafter took a normal continental breakfast, lunch at noon, and dinner at 6 p.m. Ileostomy effluents were collected every hour for eight hours (FIGS. 1+2) urine was collected over an 8 hour period and venous blood was drawn at intervals through the first eight hours (FIGS. 3 and 4).

[10] = tested on: inflamed mucosa in ulcerative colitis; conditions: enema; compared with 5-ASA; cited from earlier work
Crohn's disease = conditions: cited from earlier work
[11] = cited from earlier work; remark: listed apart in the source

share of collected portion as 5-ASA still retained in the granules ([1]; 8 hours, of the 58% collected): last third | share of collected portion as free 5-ASA ([1]; 8 hours, of the 58% collected): one third | detection in ileostomy secretions [1]: no 5-ASA or 5-AcASA could be detected | excretion rate in ileostomy effluents ([1]; 500 mg 5-ASA): excreted at constant rates | dose excreted at 48 h ([1]; human, ileostomy effluent, po, 500 mg, one patient, collecting up to 48 hours, read-out: further 5-ASA found on expanded collection): 20% | dose excreted at 8 h ([1]; human, ileostomy effluent, po, 8 hours after ingestion, 500 mg 5-ASA, read-out: ingested total dose collected in the ileostomy bags): 58% | Fa ([1]; human, small bowel, po, 500 mg, composition of the invention, ileostomy patients, read-out: 5-ASA that may be absorbed from the small bowel): ≤ 50% | 5-ASA retained in the granules ([1]; one patient, collecting up to 48 hours): more than one third | 5ASA found in urine ([2]; 500 mg 5-ASA single oral dose): no 5ASA was found except in one case | 5-ASA found in urine, one case ([2]; one patient, 500 mg 5-ASA): 1.4 mg | concentration at 144 h ([3]; human, plasma, po, day six, all fourteen subjects, 500 mg t.i.d., read-out: total range of 5-ASA plasma concentrations): 1200 to 2830 ng/mL | variation according to acetylator phenotype ([3]; slow and fast acetylators): did not show a significant variation | urinary excretion of free 5-ASA ([4]; 500 mg t.i.d.): could not be recorded | faecal content of granules, released and non-released 5-ASA (average total) ([5]; analysed 24 hours after collection of the faeces): 5-10% | 95% confidence limits of mean faecal excretion of free 5-ASA and 5-AsASA ([5]; day 6, steady state): 378-650 mg per 24 h | total mean faecal excretion of free 5-ASA and 5-AsASA ([5]; day 6, steady state, sum of 5-ASA and 5-AsASA, mean): 514 mg per 24 h | recovery ([5]; human, urine and faeces, po, day 6, steady state, daily ingested total dose 1500 mg 5-ASA, read-out: mean recovery rate): 83% | daily qualitative faecal analysis [5]: presence
SMILES: Nc1ccc(O)c(C(=O)O)c1 [5-ASA, 5-aminosalicylic acid]
therapeutic effect (colitis ulcerosa; Azad Khan et al. and van Hees et al.): also has therapeutic effect | therapeutic role on rectal administration (colitis ulcerosa): therapeutically active moiety; also recorded: exhibits a useful therapeutic activity like SASP | absorption from the small bowel ([6]; free 5-ASA, oral, healthy subjects): absorbed from the small bowel in particular the jejunum; also recorded: essentially completely | amounts observed in the feces [6]: no noticeable amounts | absorption from the small bowel [7]: essentially completely | amounts observed in the feces [7]: no noticeable amounts | absorption from the colon ([8]; after SASP): the major part of the released 5-ASA is not absorbed | absorption of 5-ASA from the colon in diarrhoea ([8]; after SASP, van Hees et al.): drastically decreased | serum concentrations ([8]; in vivo, po): very low serum concentrations

share of collected portion as free 5-AsASA ([1]; 8 hours, of the 58% collected): another third | detection in ileostomy secretions [1]: no 5-ASA or 5-AcASA could be detected | excretion rate in ileostomy effluents ([1]; 500 mg 5-ASA): excreted at constant rates | plasma amounts of 5AsASA [9]: Trace amounts | mean 5-AsASA found in urine ([2]; within 8 hours, 500 mg 5-ASA, mean): 60 mg | range of 5-AsASA found in urine ([2]; within 8 hours, 500 mg 5-ASA, range): 42 to 82 mg | detection in plasma and urine ([3]; whole study, 500 mg t.i.d. for six days): only 5AcASA was detected | 95% confidence limits of mean urinary 5-AsASA excretion ([4]; day 6, steady state): 587-887 mg per 24 h | mean urinary 5-AsASA excretion during 24 h ([4]; day 6, steady state, 24 h, calculated as 5-ASA, mean): 737 mg | daily qualitative faecal analysis [5]: presence
SMILES: CC(=O)Nc1ccc(O)c(C(=O)O)c1 [5-AcASA, N-acetyl-5-aminosalicylic acid]
effect on the inflamed mucosa in ulcerative colitis [10]: resembled 5-ASA in its effect on the inflamed mucosa | amounts observed in the feces [6]: no noticeable amounts | amounts observed in the feces [7]: no noticeable amounts | serum concentrations ([8]; after oral administration of 4 g of SASP, Fischer and Klotz): very low serum concentrations

SMILES: O=C(O)c1cc(/N=N/c2ccc(S(=O)(=O)Nc3ccccn3)cc2)ccc1O [SASP, salicylazosulfapyridine]
effectiveness in Crohn's disease of colon and rectum (Crohn's disease; disease extends to or limited to colon and rectum): proved effective | effectiveness in Crohn's disease limited to the ileum (Crohn's disease; disease limited to the ileum): not proved to be very effective | state on reaching the colon ([8]; oral SASP): reaches the colon intact | patients allergic to sulfa drugs ([11]; excludes SASP treatment): up to 10% | side effects ([11]; in vivo): nausea and vomitting, skin rashes, anemia, arthralgias, headache

SMILES: Nc1ccc(S(=O)(=O)Nc2ccccn2)cc1 [SP, sulfapyridine]
therapeutic role on rectal administration (colitis ulcerosa): only acts as a "carrier" | absorption from the colon ([8]; after SASP): highly absorbed from the colon
